For the first data set, the target named is T1, rGAT1 (Rattus norvegicus, UniProt P23978).
T1 construct: Y prefix of 'YrGAT-1' (own knowledge: yellow fluorescent protein, YFP, fused to rGAT1 in this group's constructs); expressed in transfected cells; host or cells: HEK293
Put plainly: [3H]-GABA uptake inhibition assay in HEK293 cells stably expressing rGAT1. The format is cell-based. The note with it: 100 μM compound.
Turning to bepotastine [compound 25], the “effect on [3H]-GABA uptake, in words” value is “inactive”.
On to `O=C(CCN1CCCC1C(=O)O)Nc1ccccc1Oc1ccccc1` (centres unmarked) [compound 18], for which the “effect on [3H]-GABA uptake, in words” value is “some weak activity”.
With ramipril [compound 26], the “effect on [3H]-GABA uptake, in words” value was “inactive”.
Still for that read-out and setting: as for `N[C@@H](Cc1cc(I)c(Oc2cc(I)c(O)c(I)c2)c(I)c1)C(=O)O` [27b, levothyroxine], the entry is “reduced uptake, albeit weaker than 27a”.

The data set is the same for the next values; noted with them: 100 μM compound; listed as bepotastine.
As for bepotastine [compound 25], the “effect on [3H]-GABA uptake, in words” value was “essentially inactive”.

The same data set, now with this note: 100 μM of the respective compound; n = 3; relative to saline.
Turning to bepotastine [compound 25], the “% uptake (remaining uptake of [3H]-GABA)” value is given as 103.8%.
Still for that read-out and setting: to ramipril [compound 26] belongs 107.7%.

The data set is the same for the next values; noted with them: HEK293, 100 μM of the respective compound; n = 3; relative to saline.
For the molecule `Cc1cc(S(=O)(=O)N2CCN(CCC(=O)O)CC2)ccc1Br` [compound 22], the remaining activity (as a rule, the signal under treatment as a percentage of the control signal) at 100 µM was found to be 104%.
Regarding `O=C(O)CN1CCCC1Cc1ccccc1Cl` (centres unmarked) [compound 16], the remaining activity at 100 µM came out at 95.1%.
Still for that read-out and setting: to `N[C@H](Cc1cc(I)c(Oc2cc(I)c(O)c(I)c2)c(I)c1)C(=O)O` [27c, dextrothyroxine] belongs 127%; to `CCC(CC)OC1C=C(C(=O)O)CC(N)C1NC(C)=O` (centres unmarked) [compound 24], 105%; to `Fc1cc(Br)cc(CN2CCCC(c3nnn[nH]3)C2)c1` (centres unmarked) [compound 19], 91%.
Regarding `O=C(CCN1CCCC1C(=O)O)Nc1ccccc1Oc1ccccc1` (centres unmarked) [compound 18], the remaining activity at 100 µM was 79.3%.
In the case of `CC(C(=O)O)N1CCCN(C(=O)c2ccccc2C(F)(F)F)CC1` (centres unmarked) [compound 15], the remaining activity at 100 µM was found to be 104%.
The same measure, in the same setting: as for `O=C(O)CN1CCC(CCc2ccccc2C(F)(F)F)CC1` [compound 14], the figure is 99%; as for `Cc1nn(Cc2ccccc2Cl)c(C)c1CN(C)C(C)C(=O)O` (centres unmarked) [compound 20], 93.9%; as for `CC(C(=O)Nc1ccc(Br)cc1Br)N1CCCC(CC(=O)O)C1` (centres unmarked) [compound 13], 93.2%.
For `O=C(CN1CCC[C@H]1C(=O)O)NC(c1ccc(F)cc1)c1cccs1` (some centres unmarked) [compound 21], the remaining activity at 100 µM worked out at 94.7%.
Same read-out and setting: as for `N[C@@H](Cc1cc(I)c(Oc2cc(I)c(O)c(I)c2)c(I)c1)C(=O)O` [27b, levothyroxine], the figure is 54.2%; as for `CCN(CCC(=O)O)Cc1nc2c(C)cccc2c(=O)[nH]1` [compound 12], 105%.
The same measure, in the same setting: to `NC(CSCc1cccc2ccccc12)C(=O)O` (centres unmarked) [compound 23] belongs 108%.

The next data set has as its system GABA uptake, rat synaptosome.
Experiment: not given
The note with it: literature data set; ref 10.1016/S0968-0896(01)00148-1; cited from earlier work.
Turning to `O=C(O)[C@@H]1CCCN(CCOCc2cccc(Cc3ccccc3)c2)C1` [An_2001/6_38, O(Cc1cc(ccc1)Cc1ccccc1)CCN1C[C@@H](CCC1)C(O)=O], the pIC50 (as a rule, −log10 of the IC50, conventionally taken in molar units) is reported as 5.523.
Regarding `O=C(O)[C@@H]1CCCN(CCO/N=C2\CCCC\C2=C/c2ccccc2)C1` [An_2001/6_26, O(\N=C\1/CCCC/C/1=C\c1ccccc1)CCN1C[C@@H](CCC1)C(O)=O], the pIC50 was 5.013.
Consider `CC(C)/C=C(/C=N/OCCN1CCC[C@@H](C(=O)O)C1)c1ccccc1` [An_2001/6_21, O(\N=C\C(=C\C(C)C)\c1ccccc1)CCN1C[C@@H](CCC1)C(O)=O], for which the negative-log IC50 (pIC50) is on record as 6.569.
Take `O=C(O)[C@@H]1CCCN(CCO/N=C(\c2ccccc2)C2CC2)C1` [An_2001/6_14, O(\N=C(\C1CC1)/c1ccccc1)CCN1C[C@@H](CCC1)C(O)=O]: the negative-log IC50 (pIC50) was 5.907.

Staying with this data set, now noted: literature data set; ref 10.1021/jm00064a005; cited from earlier work.
Turning to `Cc1ccsc1/C(=C/CCN1CCC=C(C(=O)O)C1)c1ccc(Cl)cc1Cl` [An_1993_37, Clc1cc(Cl)ccc1\C(=C/CCN1CC(=CCC1)C(O)=O)\c1sccc1C], the pIC50 is listed as 6.495.
In the case of `Cc1ccsc1C(=CCCN1CCC=C(C(=O)O)C1)c1sccc1C` [An_1993_30, s1ccc(C)c1\C(=C\CCN1CC(=CCC1)C(O)=O)\c1sccc1C], the negative-log IC50 (pIC50) is 6.854.
`Cc1ccsc1C(=CCCN1CCC[C@@H](C(=O)O)C1)c1sccc1C` [compound 5, tiagabine]: the negative-log IC50 (pIC50) is listed as 7.174.
`O=C(O)[C@@H]1CCCN(CCC=C(c2ccccc2)c2ccccc2)C1` [(R)-SK&F-89976-A, OC(=O)[C@@H]1CCCN(C1)CC\C=C(\c1ccccc1)/c1ccccc1]: the negative-log IC50 (pIC50) is given as 6.959.

Staying with this data set, now noted: literature data set; ref 10.1021/jm980492e; cited from earlier work.
In the case of `Cc1ccccc1[C@H](CCOCCN1CCC[C@@H](C(=O)O)C1)c1ccccc1` [An_1999/4_(R)-31, O(CC[C@@H](c1ccccc1C)c1ccccc1)CCN1C[C@@H](CCC1)C(O)=O], the pIC50 is 7.066.
Take `O=C(O)[C@@H]1CCCN(CCCOCCCN(c2ccccc2)c2ccccc2)C1` [An_1999/4_(R)-19, O(CCCN1C[C@@H](CCC1)C(O)=O)CCCN(c1ccccc1)c1ccccc1]: the negative logarithm of the IC50 (pIC50) is recorded as 5.523.
With `O=C(O)[C@@H]1CCCN(CCOCC=C(c2ccccc2)c2ccccc2)C1` [An_1999/4_(R)-21, O(CCN1C[C@@H](CCC1)C(O)=O)C\C=C(\c1ccccc1)/c1ccccc1], the pIC50 is reported as 6.585.
In the case of `O=C(O)[C@@H]1CCCN(CCCCCCC=C(c2ccccc2)c2ccccc2)C1` [An_1999/4_(R)-28, OC(=O)[C@@H]1CCCN(C1)CCCCCC\C=C(\c1ccccc1)/c1ccccc1], the pIC50 is 5.866.
Regarding `O=C(O)[C@@H]1CCCN(CCOCCN(c2ccccc2)c2ccccc2)C1` [An_1999/4_(R)-17, O(CCN1C[C@@H](CCC1)C(O)=O)CCN(c1ccccc1)c1ccccc1], the pIC50 is reported as 7.046.

The same data set, now with this note: literature data set; ref 10.1021/jm981027k; cited from earlier work.
For `O=C(O)[C@@H]1CCCN(CCO/C=C(/c2ccc(F)cc2F)c2cc(F)ccc2F)C1` [An_1999/3_106, Fc1cc(F)ccc1/C(=C/OCCN1C[C@@H](CCC1)C(O)=O)/c1cc(F)ccc1F], the pIC50 is on record as 7.301.
On to `Cc1ccsc1C(=NOCCN1CCC[C@@H](C(=O)O)C1)c1sccc1C` [An_1999/3_12, s1ccc(C)c1\C(=N\OCCN1C[C@@H](CCC1)C(O)=O)\c1sccc1C], for which the pIC50 is 7.398.
As for `CCc1ccccc1C(=COCCN1CCC[C@@H](C(=O)O)C1)c1ccccc1CC` [An_1999/3_103, O(\C=C(\c1ccccc1CC)/c1ccccc1CC)CCN1C[C@@H](CCC1)C(O)=O], the pIC50 was 7.523.
`O=C(O)[C@@H]1CCCN(CCON=C(c2ccc(F)cc2Cl)c2ccc(F)cc2Cl)C1` [An_1999/3_94, Clc1cc(F)ccc1\C(=N\OCCN1C[C@@H](CCC1)C(O)=O)\c1ccc(F)cc1Cl]: the pIC50 was 7.
Consider `Cc1ccccc1/C(=C/OCCN1CCC[C@@H](C(=O)O)C1)c1ccccc1` [An_1999/3_97, O(\C=C(\c1ccccc1C)/c1ccccc1)CCN1C[C@@H](CCC1)C(O)=O], for which the negative logarithm of the IC50 (pIC50) is 7.301.
With `Cc1ccccc1C(=COCCN1CCC=C(C(=O)O)C1)c1ccccc1C` [An_1999/3_70, O(\C=C(\c1ccccc1C)/c1ccccc1C)CCN1CC(=CCC1)C(O)=O], the negative-log IC50 (pIC50) was 7.585.

Still in this data set, the particulars now being: literature data set; ref 10.1021/jm990513k; cited from earlier work.
Consider `O=C(O)[C@@H]1CCCN(CCOCCCN2c3ccccc3CCc3ccccc32)C1` [An_2001/5_32, O(CCCN1c2c(CCc3c1cccc3)cccc2)CCN1C[C@@H](CCC1)C(O)=O], for which the pIC50 is 6.155.
In the case of `O=C(O)[C@@H]1CCCN(CCCOCC=C2c3ccccc3CCc3ccccc32)C1` [An_2001/5_36, O(CCCN1C[C@@H](CCC1)C(O)=O)C\C=C/1\c2c(CCc3c\1cccc3)cccc2], the pIC50 is on record as 6.337.
Regarding `O=C(O)C1=CCCN(CCOCCN2c3ccccc3CCc3ccccc32)C1` [An_2001/5_24, O(CCN1CC(=CCC1)C(O)=O)CCN1c2c(CCc3c1cccc3)cccc2], the pIC50 was 6.194.
Regarding `O=C(O)[C@@H]1CCCN(CCOCCN2c3ccc(F)cc3CCc3cc(F)ccc32)C1` [An_2001/5_30, Fc1cc2CCc3cc(F)ccc3N(c2cc1)CCOCCN1C[C@@H](CCC1)C(O)=O], the negative-log IC50 (pIC50) was 6.602.

Tested on in another data set: not given
Experiment: not given
Further details: method as in PMID 10903390. The note with it: cited from earlier work.
Turning to `O=C(O)C1=CCCNC1` [compound 3, guvacine], the blood-brain barrier penetration result is “unable to penetrate the blood–brain barrier”.
Consider `O=C(O)C1CCCNC1` (centres unmarked) [compound 2, nipecotic acid], for which the blood-brain barrier penetration result is listed as “unable to penetrate the blood–brain barrier”.

The next data set concerns other neurotransmitter reuptake systems (dopamine, serotonin, choline, aspartate).
Experiment: not given
Further details: method as in PMID 3509068. To be noted: cited from earlier work.
Consider liothyronine [27a], for which the “activity on other neurotransmitter reuptake systems” value is “without major activity”.

Values taken from article PMC4360375 (Journal of Medicinal Chemistry, 2015).
